From ChEMBL document CHEMBL1201862, “PubChem BioAssay data set” (2004)
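Dose response: 5 concentrations. Exposure: 48 h. Format: 96-well plates. Endpoint: linear interpolation; highest concentration if not reached. GI50 is the concentration that inhibits growth by half.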 The source made the active and inactive calls. No stated cut-off is given here; in the data, active = GI50 up to about 1.1 µM and inactive = higher.

Columns and labels:
Assay in all cases: NCI tumour cell line growth inhibition, 48 h
LXFL 529 = system: LXFL 529
SF-295 = system: SF-295
RXF 393 = system: RXF 393
HCC 2998 = system: HCC 2998
SF-268 = system: SF-268
TK-10 = system: TK-10
KM12 = system: KM12
IGROV-1 = system: IGROV-1
SW-620 = system: SW-620
M19-MEL = system: M19-MEL
CCRF-CEM = system: CCRF-CEM
SR = system: SR
HCT-15 = system: HCT-15
KM-20L2 = system: KM-20L2
HOP-92 = system: HOP-92
OVCAR-3 = system: OVCAR-3
HOP-18 = system: HOP-18
U-251 = system: U-251
DMS-114 = system: DMS-114
MDA-MB-435 = system: MDA-MB-435

| SMILES | GI50 (LXFL 529) | GI50 (SF-295) | GI50 (RXF 393) | GI50 (HCC 2998) | GI50 (SF-268) | GI50 (TK-10) | GI50 (KM12) | GI50 (IGROV-1) | GI50 (SW-620) | GI50 (M19-MEL) | GI50 (CCRF-CEM) | GI50 (SR) | GI50 (HCT-15) [µM] | GI50 (KM-20L2) | GI50 (HOP-92) | GI50 (OVCAR-3) | GI50 (HOP-18) | GI50 (U-251) | GI50 (DMS-114) | GI50 (MDA-MB-435) |
| --- | --- | --- | --- | --- | --- | --- | --- | --- | --- | --- | --- | --- | --- | --- | --- | --- | --- | --- | --- | --- |
| CCO/N=[N+](\[O-])N(CC)CC | > 100 µM (inactive) | > 100 µM (inactive) | > 100 µM (inactive) | > 100 µM (inactive) | > 100 µM (inactive) | > 100 µM (inactive) | > 100 µM (inactive) | > 100 µM (inactive) | > 100 µM (inactive) | > 100 µM (inactive) | > 100 µM (inactive) | > 100 µM (inactive) | > 100 | > 100 µM (inactive) | > 100 µM (inactive) | > 100 µM (inactive) |  |  |  |  |
| C=C1C(=O)O[C@H]2C1[C@H](OC(=O)/C(C)=C\COC(C)=O)C[C@]1(CO1)[C@@H]1[C@H](O)[C@H]3O[C@@]3(C)[C@@H]12 (some centres not stated) |  | > 61 µM (inactive) | 16.8 µM (inactive) | 15 µM (inactive) | 21.1 µM (inactive) |  | 14.8 µM (inactive) | 24 µM (inactive) | 13.2 µM (inactive) | 15.7 µM (inactive) | 10.5 µM (inactive) |  | 18.5 | 30.5 µM (inactive) | 15.2 µM (inactive) | 18.3 µM (inactive) | 20 µM (inactive) | 21.7 µM (inactive) | 19.4 µM (inactive) |  |
| CCCN(CCCCC(NC(C)=O)C(=O)NCc1ccccc1)C(=O)NC (configuration not stated) | > 100 µM (inactive) | > 100 µM (inactive) | > 100 µM (inactive) | > 100 µM (inactive) | > 100 µM (inactive) | > 100 µM (inactive) | > 100 µM (inactive) | > 100 µM (inactive) | > 100 µM (inactive) | > 100 µM (inactive) | > 100 µM (inactive) |  | > 100 | > 100 µM (inactive) | > 100 µM (inactive) | > 100 µM (inactive) |  | > 100 µM (inactive) | > 100 µM (inactive) |  |
| C=C1C(=O)OC2/C=C(\C)CC(O)/C=C(/CO)CC(OC(=O)/C(C)=C/C)C12 (configuration not stated) |  | 163 µM (inactive) | 14.4 µM (inactive) | 42.7 µM (inactive) | 46.8 µM (inactive) |  | 45 µM (inactive) | 37.8 µM (inactive) | 17.6 µM (inactive) | 23 µM (inactive) | 13.9 µM (inactive) |  | 38.4 | 71.1 µM (inactive) | 30.9 µM (inactive) | 29.9 µM (inactive) | 26.3 µM (inactive) | 86.1 µM (inactive) | 14.3 µM (inactive) |  |
| Cn1nc2ccc3nccc(NCCNCCCl)c3c2n1 | > 100 µM (inactive) | > 100 µM (inactive) | > 100 µM (inactive) | > 100 µM (inactive) | > 100 µM (inactive) | > 100 µM (inactive) | > 100 µM (inactive) | > 100 µM (inactive) | > 100 µM (inactive) | > 100 µM (inactive) | > 100 µM (inactive) | > 100 µM (inactive) | > 100 | > 100 µM (inactive) | > 100 µM (inactive) | > 100 µM (inactive) |  |  | > 100 µM (inactive) |  |
| Nc1n[n+](-c2ccccc2)no1 | 5.26 µM (inactive) | 33.8 µM (inactive) |  | 17.4 µM (inactive) | 42 µM (inactive) | > 100 µM (inactive) | 10.1 µM (inactive) | 24.4 µM (inactive) | 45.8 µM (inactive) | 46.2 µM (inactive) | 31.8 µM (inactive) |  | 28.1 | 10.8 µM (inactive) | 25.4 µM (inactive) | 47.4 µM (inactive) |  | 51.4 µM (inactive) | 18.3 µM (inactive) |  |
| COC(=O)/C(=N/NC(C)(C)C)C(C(=O)OC)C(=O)C(=O)Nc1nc2ccc([N+](=O)[O-])cc2s1 (configuration not stated) | > 100 µM (inactive) | > 100 µM (inactive) |  | > 100 µM (inactive) | > 100 µM (inactive) | > 100 µM (inactive) | > 100 µM (inactive) | > 100 µM (inactive) | > 100 µM (inactive) | > 100 µM (inactive) | > 100 µM (inactive) | > 100 µM (inactive) | > 100 | > 100 µM (inactive) |  | > 100 µM (inactive) |  | > 100 µM (inactive) | > 100 µM (inactive) |  |
| C/C(=N\Nc1ccccc1)C(CN(C)C)C(c1ccccc1)c1c(O)c2ccccc2oc1=O (configuration not stated) | > 100 µM (inactive) | > 100 µM (inactive) | > 100 µM (inactive) | > 100 µM (inactive) | > 100 µM (inactive) | > 100 µM (inactive) | > 100 µM (inactive) | > 100 µM (inactive) | > 100 µM (inactive) | > 100 µM (inactive) | > 83.8 µM (inactive) | 85.9 µM (inactive) | > 100 | > 100 µM (inactive) | > 35.2 µM (inactive) | > 100 µM (inactive) |  | > 100 µM (inactive) | > 100 µM (inactive) | > 100 µM (inactive) |
| O=S1(=O)OCCOS(=O)(=O)C1Cl | > 100 µM (inactive) | > 100 µM (inactive) |  | > 100 µM (inactive) | > 100 µM (inactive) | > 100 µM (inactive) | > 100 µM (inactive) | > 100 µM (inactive) | > 100 µM (inactive) | > 100 µM (inactive) | > 100 µM (inactive) | > 100 µM (inactive) |  |  | > 100 µM (inactive) | > 100 µM (inactive) | > 100 µM (inactive) |  | > 100 µM (inactive) |  |
| CC(=O)/C=C\C(=O)NNS(=O)(=O)c1ccc(C)cc1 | > 100 µM (inactive) | > 100 µM (inactive) | > 100 µM (inactive) | > 100 µM (inactive) | > 100 µM (inactive) | > 100 µM (inactive) | > 100 µM (inactive) | > 100 µM (inactive) | > 100 µM (inactive) | > 100 µM (inactive) | > 100 µM (inactive) | > 100 µM (inactive) | > 100 | > 100 µM (inactive) | > 100 µM (inactive) | > 100 µM (inactive) |  | > 100 µM (inactive) |  |  |
| COc1ccc(/C(=N/O)C(c2ccc(OC)cc2)C2C(=O)Oc3ccccc32)cc1 (configuration not stated) | 36.3 µM (inactive) | 3.13 µM (inactive) |  | > 100 µM (inactive) | > 100 µM (inactive) | > 100 µM (inactive) | 83.4 µM (inactive) | 40 µM (inactive) | > 100 µM (inactive) | 68.5 µM (inactive) | > 100 µM (inactive) | > 100 µM (inactive) | 71.6 |  | 16.3 µM (inactive) |  | > 100 µM (inactive) | 87.5 µM (inactive) | 26.6 µM (inactive) |  |
| COC(=O)CC(C(C(=O)OCc1ccccc1)C(C)O)N1C(=O)OCC1c1ccccc1 (configuration not stated) | 56.1 µM (inactive) | 45 µM (inactive) | 95.7 µM (inactive) | > 100 µM (inactive) | 97.5 µM (inactive) | > 100 µM (inactive) |  | 69.3 µM (inactive) | > 100 µM (inactive) | 69.2 µM (inactive) | 49 µM (inactive) | 38.1 µM (inactive) | > 100 | 83.8 µM (inactive) |  | 93.5 µM (inactive) |  | 83 µM (inactive) | 46.9 µM (inactive) |  |
| O=C1CC(c2ccsc2)n2cccc21 (configuration not stated) |  | > 100 µM (inactive) | > 100 µM (inactive) | > 100 µM (inactive) | > 100 µM (inactive) | > 100 µM (inactive) | > 100 µM (inactive) | > 100 µM (inactive) | > 100 µM (inactive) |  | > 100 µM (inactive) | > 100 µM (inactive) | > 100 |  | > 100 µM (inactive) | > 100 µM (inactive) |  | > 100 µM (inactive) |  | > 100 µM (inactive) |
| CSC(=S)N/N=C(\C)c1cccc(C)n1 |  | 1.49 µM (inactive) | 0.998 µM (active) | 3.17 µM (inactive) | 0.708 µM (active) | 0.975 µM (active) | 2.26 µM (inactive) | 1.61 µM (inactive) | 0.208 µM (active) |  | 0.0124 µM (active) | 0.23 µM (active) | 0.375 |  | 1.1 µM (active) | 0.0568 µM (active) |  | 0.776 µM (active) |  | 1.35 µM (inactive) |
| Cc1nccn1S(=O)(=O)c1ccc(Cl)cc1 |  | 67.6 µM (inactive) | 52 µM (inactive) | 29.2 µM (inactive) | 47.9 µM (inactive) | 72.8 µM (inactive) | 42.5 µM (inactive) | 37.4 µM (inactive) | 65.2 µM (inactive) |  | 41 µM (inactive) | 38 µM (inactive) | 41.6 |  | 16.9 µM (inactive) | 54.8 µM (inactive) |  | 61.1 µM (inactive) |  | 22.7 µM (inactive) |
| CC(C)[Si](OC1=C(C(=O)N(C)c2cccc(Cl)c2)CCCC1)(C(C)C)C(C)C |  | 11 µM (inactive) | 3.4 µM (inactive) | 17 µM (inactive) | 13.3 µM (inactive) | 15.4 µM (inactive) | 13.5 µM (inactive) | 17.2 µM (inactive) | 13.6 µM (inactive) |  | 29.7 µM (inactive) | 9.16 µM (inactive) | 14 |  | 12.4 µM (inactive) | 14 µM (inactive) |  | 13.8 µM (inactive) |  | 15.5 µM (inactive) |
| N#Cc1cnn2ccn(C3OC(COC(=O)c4ccccc4)C(OC(=O)c4ccccc4)C3OC(=O)c3ccccc3)c12 (configuration not stated) |  | > 21.5 µM (inactive) | > 21.5 µM (inactive) | > 21.5 µM (inactive) | > 21.5 µM (inactive) | > 31.6 µM (inactive) | 17.3 µM (inactive) | > 21.5 µM (inactive) | > 21.5 µM (inactive) |  | > 21.5 µM (inactive) | > 31.6 µM (inactive) | > 21.5 |  | > 31.6 µM (inactive) | > 21.5 µM (inactive) |  | > 21.5 µM (inactive) |  | > 21.5 µM (inactive) |
